Values joined by “and” are separate entries in the source; they are usually repeats but may differ in a detail not shown here. Equal values may be shown once.

For one test, the target named is T1, human DGKalpha (Homo sapiens, UniProt P23743).
T1 construct: made in house; host or cells: baculovirus-infected Sf9 insect cells
Kind of test: Human DGKalpha kinase activity inhibition assay (ADP-Glo). Type of test: biochemical. The note with it: read-out: IC50 hDGKa. The protocol: Human DGKalpha inhibitory activity of compounds of the present invention was quantified employing the human DGKalpha kinase activity assay as described in the following paragraphs. In essence, the enzyme activity was measured by quantification of the adenosine-di-phosphate (ADP) generated as a co-product of the enzyme reaction via the “ADP-Glo™ Kinase Assay” kit from the company Promega. This detection system works as follows: In a first step the ATP not consumed in the kinase reaction is quantitatively converted to cAMP employing an adenylate cyclase (“ADP-Glo-reagent”), then the adenylate cyclase is stopped and the ADP generated in the kinase reaction converted to ATP, which subsequently generates in a luciferase-based reaction a glow-luminescence signal (“Kinase Detection Reagent”).
(§1) C-terminally FLAG-tagged, recombinant full-length human DGKalpha (expressed in baculovirus infected insect cells, purified using anti-Flag pulldown and size exclusion chromatography as described below, DGKa_hu_1) was used as enzyme. As substrate for the kinase 1,2-dioleoyl-sn-glycerol, reconstituted in octyl-β-D-glucopyranoside micelles, was used. […] Then 35 volumes of 50 mM MOPS buffer (pH 7.4) were added to yield a solution of 0.28 mM 1,2 dioleoyl-sn-glycerol and 200 mM octyl-β-D-glucopyranoside, which was aliquoted, flash-frozen in liquid nitrogen, and stored at −20° C. until use.
For the assay 50 nl of a 100-fold concentrated solution of the test compound in dimethyl sulfoxide (DMSO, Sigma) was pipetted into either a white 1536-well or a white low-volume 384-well microtiter plate (both Greiner Bio-One, Frickenhausen, Germany). […] The concentration of DGKα was adjusted depending of the activity of the enzyme lot and was chosen appropriate to have the assay in the linear range, a typical concentration is about 0.1 nM. The reaction was stopped by the addition of […] of “ADP-Glo-reagent” (1 to 1.5 diluted with water) and the resulting mixture was incubated at 22° C. for 1 h to convert the ATP not consumed in the kinase reaction completely to cAMP. […] The amount of emitted light was taken as a measure for the amount of ADP generated and thereby for the activity of the DGKα.
(In ADP-Glo the light output rises with the ADP produced.)

In another test the target is T2, human DGKzeta (Homo sapiens, UniProt Q13574).
T2 construct: C-terminally FLAG-tagged, recombinant full-length human DGKζ; made in house; host or cells: baculovirus-infected insect cells
T2 sequence (Q13574 whole entry): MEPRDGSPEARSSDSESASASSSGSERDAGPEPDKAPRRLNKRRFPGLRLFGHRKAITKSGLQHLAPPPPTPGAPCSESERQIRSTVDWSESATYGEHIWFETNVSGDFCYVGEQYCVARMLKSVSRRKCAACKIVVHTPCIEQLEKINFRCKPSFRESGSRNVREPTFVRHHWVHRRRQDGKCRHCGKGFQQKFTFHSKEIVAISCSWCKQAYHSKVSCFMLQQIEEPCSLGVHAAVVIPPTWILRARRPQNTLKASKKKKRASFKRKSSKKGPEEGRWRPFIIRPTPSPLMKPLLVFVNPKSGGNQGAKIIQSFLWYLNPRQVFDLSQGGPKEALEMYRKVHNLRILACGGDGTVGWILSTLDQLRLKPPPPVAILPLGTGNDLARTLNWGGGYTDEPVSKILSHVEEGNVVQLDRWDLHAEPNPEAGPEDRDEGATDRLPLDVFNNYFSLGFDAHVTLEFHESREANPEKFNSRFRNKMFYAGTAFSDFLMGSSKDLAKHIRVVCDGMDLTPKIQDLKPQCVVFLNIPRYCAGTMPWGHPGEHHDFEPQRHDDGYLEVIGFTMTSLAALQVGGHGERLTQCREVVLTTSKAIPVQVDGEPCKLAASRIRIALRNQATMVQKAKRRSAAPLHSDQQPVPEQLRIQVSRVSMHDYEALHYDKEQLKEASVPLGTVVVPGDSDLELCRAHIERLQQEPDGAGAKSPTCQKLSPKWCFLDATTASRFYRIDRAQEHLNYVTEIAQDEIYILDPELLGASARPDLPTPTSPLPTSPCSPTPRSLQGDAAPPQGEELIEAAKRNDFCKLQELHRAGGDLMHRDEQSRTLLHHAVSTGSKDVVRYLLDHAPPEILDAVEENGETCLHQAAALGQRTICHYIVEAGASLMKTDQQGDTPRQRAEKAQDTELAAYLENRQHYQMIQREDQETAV
Kind of test: Human DGKzeta kinase activity inhibition assay (ADP-Glo). Type of test: biochemical. The note with it: read-out: IC50 hDGKz. The protocol: Human diacylglycerol kinase zeta (DGKζ) inhibitory activity of compounds of the present invention was quantified employing the human DGKζ kinase activity assay as described in the following paragraphs. In essence, the enzyme activity was measured by quantification of the adenosine-di-phosphate (ADP) generated as a co-product of the enzyme reaction via the “ADP-Glo™ Kinase Assay” kit from the company Promega. This detection system works as follows: In a first step the adenosine-tri-phosphate (ATP) not consumed in the kinase reaction is quantitatively converted to cyclic adenosine-mono-phosphate (cAMP) employing an adenylate cyclase (“ADP-Glo-reagent”), then the adenylate cyclase is stopped and the ADP generated in the kinase reaction is converted to ATP, which subsequently generates in a luciferase-based reaction a glow-luminescence signal (“Kinase Detection Reagent”).
as §1, with “DGKζ (inhouse expressed” for “DGKalpha (expressed”, “chromatography)” for “chromatography as described below, DGKa_hu_1)”, “As an alternative, commercially available enzyme by Carnabio can be used. As” for “As”, “kinase,” for “kinase”
For the assay 50 nl of a 100-fold concentrated solution of the test compound in dimethyl sulfoxide (DMSO, Sigma) was pipetted into either a white 1536-well or a white low-volume 384-well microtiter plate (both Greiner Bio-One, Frickenhausen, Germany). […] The concentration of DGKζ was adjusted depending of the activity of the enzyme lot and was chosen appropriate to have the assay in the linear range, a typical concentration is about 0.1 nM. The reaction was stopped by the addition of 2.5 μL of “ADP-Glo-reagent” (1 to 1.5 diluted with water) and the resulting mixture was incubated at 22° C. for 1 h to convert the ATP not consumed in the kinase reaction completely to cAMP. […] The amount of emitted light was taken as a measure for the amount of ADP generated and thereby for the activity of the DGKζ.

The test system of test [1] is glioblastoma multiforme (GBM) cells. The note with it: concurrent administration; cited from earlier work.

T1 sequence (P23743 whole entry): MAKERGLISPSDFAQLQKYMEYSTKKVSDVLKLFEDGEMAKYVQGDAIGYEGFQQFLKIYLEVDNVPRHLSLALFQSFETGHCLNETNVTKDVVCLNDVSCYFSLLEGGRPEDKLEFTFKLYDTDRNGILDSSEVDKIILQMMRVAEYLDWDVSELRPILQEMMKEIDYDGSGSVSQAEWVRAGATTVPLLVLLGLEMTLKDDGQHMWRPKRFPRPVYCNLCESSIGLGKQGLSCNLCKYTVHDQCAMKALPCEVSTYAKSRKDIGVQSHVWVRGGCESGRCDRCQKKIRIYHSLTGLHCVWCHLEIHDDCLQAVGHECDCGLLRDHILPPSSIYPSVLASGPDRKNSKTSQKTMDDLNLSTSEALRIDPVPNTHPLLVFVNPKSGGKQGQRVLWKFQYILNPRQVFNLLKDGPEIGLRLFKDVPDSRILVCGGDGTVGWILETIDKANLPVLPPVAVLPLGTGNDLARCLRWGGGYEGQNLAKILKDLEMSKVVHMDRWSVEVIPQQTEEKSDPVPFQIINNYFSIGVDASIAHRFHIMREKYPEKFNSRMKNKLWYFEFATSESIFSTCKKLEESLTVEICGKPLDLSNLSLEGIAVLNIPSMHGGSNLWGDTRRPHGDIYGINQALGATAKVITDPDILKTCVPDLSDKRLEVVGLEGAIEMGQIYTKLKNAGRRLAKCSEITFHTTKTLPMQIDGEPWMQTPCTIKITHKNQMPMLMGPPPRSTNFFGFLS

One may read the IC50 as the concentration at which inhibition is half-maximal. As for `CC(C(N)=O)N(c1ccc(F)cc1)c1nc(N)c(C(=O)c2ccc(OC(F)F)cc2)s1` (single isomer, unassigned) [Example 44.2, 2-(N-[4-amino-5-[4-(difluoromethoxy)benzoyl]thiazol-2-yl]-4-fluoro-anilino)propanamide], the 50% inhibitory concentration (IC50) is greater than 20000 nM at human DGKalpha; 3.9 nM and 6.7 nM at human DGKzeta.
`Cc1nc2sccn2c(=O)c1CCN1CCC(=C(c2ccccc2)c2ccc(F)cc2)CC1` [Example R59022]: the “growth of intracranially injected GBM tumors” value in test [1] was “decreased growth of intracranially injected GBM tumors”.
Consider `COc1ccc(C2CCN(c3c(C(N)=O)c(=O)n(C)c4ccccc34)CC2)cc1` [Example 112, 4-[4-(4-methoxyphenyl)piperidin-1-yl]-1-methyl-2-oxo-1,2-dihydroquinoline-3-carboxamide], for which the IC50 on human DGKzeta is greater than 20000 nM.
For the compound `CC(C(N)=O)N(c1ccc(F)cc1)c1nc(N)c(C(=O)c2ccc(C(F)(F)F)nc2)s1` (single isomer, unassigned) [Example 29.2, 2-(N-[4-amino-5-[6-(trifluoromethyl)pyridine-3-carbonyl]thiazol-2-yl]-4-fluoro-anilino)propanamide], the figures for the IC50 at human DGKalpha and on human DGKzeta were greater than 15000 nM and 46 nM, respectively.
Take `Cc1ccc2oc(C3CCN(c4c(C(N)=O)c(=O)n(C)c5ccccc45)CC3)nc2c1` [Example 107, 1-methyl-4-[4-(5-methyl-1,3-benzoxazol-2-yl)piperidin-1-yl]-2-oxo-1,2-dihydroquinoline-3-carboxamide]: the 50% inhibitory concentration (IC50) on human DGKzeta was greater than 20000 nM.
For the compound `COc1ccc(C(=O)c2sc(N(c3ccc(F)c(F)c3)C(C)C(N)=O)nc2N)cc1` (single isomer, unassigned) [Example 51.1, 2-(N-[4-amino-5-(4-methoxybenzoyl)thiazol-2-yl]-3,4-difluoro-anilino)propanamide], the IC50 at human DGKalpha was greater than 13300 nM; at human DGKzeta, 8.2 nM and 8.9 nM.
Regarding `CC(C(N)=O)N(c1ccc(F)cc1)c1nc(N)c(C(=O)c2ccc(OC(F)(F)F)cc2)s1` (single isomer, unassigned) [Example 40.2, 2-(N-[4-amino-5-[4-(trifluoromethoxy)benzoyl]thiazol-2-yl]-4-fluoro-anilino)propanamide], the values for the IC50 on human DGKalpha and at human DGKzeta were greater than 12200 nM and 7.1 nM, respectively.
With `CNC(=O)c1c(N2CCC(c3nc4cc(C)ccc4o3)CC2)c2ccccc2n(C)c1=O` [Example 448, N,1-dimethyl-4-[4-(5-methyl-1,3-benzoxazol-2-yl)piperidin-1-yl]-2-oxo-1,2-dihydroquinoline-3-carboxamide], the IC50 at human DGKzeta is greater than 20000 nM.
The same measure, in the same setting: the result for `Cn1c(=O)c(C#N)c(N2CCC(c3nc4ccc(F)cc4o3)CC2)c2ccccc21` [Example 4, 4-[4-(6-fluoro-1,3-benzoxazol-2-yl)piperidin-1-yl]-1-methyl-2-oxo-1,2-dihydroquinoline-3-carbonitrile] reads greater than 20000 nM.

Values taken from patent US20260232652A1, “COMBINATIONS OF DGK (DIACYLGLYCEROL KINASE) INHIBITORS” (priority 2023, published 2026).
